Reference: patent US20120141983A1, “Quantitative Aggregation Sensors” (priority 2010, published 2012)

Columns and labels:
sLucAβ = assay: Effect of small molecule aggregation inhibitors on secreted reporter in inducible cell lines; format: cell-based; details: 1 μM compound, 24 hours
Experimental: (§1) 293T FlipInTrex (Invitrogen) cells. 293T FlipInTrex cells were grown as described above, using Tet Approved Fetal Bovine Serum (Clontech) and supplementing the medium with Zeocin 100 μg/mL (Invitrogen) and Blasticidin 15 μg/ml (InVivoGen, San Diego, USA). Zeocin selects for the lacZeo inserted into FRT sites in the genome, and Blasticidin selects for Tet repressor expression. For the generation of isogenic stable doxycycline inducible cell lines, cells were co-transfected overnight using Lipofectamine 2000 with the pcDNA5/FRT/TO vectors containing the fusion proteins-IRES-(NLS)3EGFP cassettes, and the pOGG-Flp recombinase plasmid (Invitrogen) at a ratio pcDNA/pOGG of 1:9. On day 2, cells were replated at −25% confluency, and selection for recombined clones was started by supplementing the medium with 75 μg/ml Hygromycin (InvivoGen) and Zeocin 100 μg/mL. Medium was exchanged every 2-3 days until colonies appeared. Cells were adapted to cell culture media containing 5% Tet approved Fetal Bovine Serum (Clontech), and 5% Serum Replacement 3 (Sigma). […] Expression of the chimeric reporter proteins was induced by addition of 0.75 μg/mL Doxycycline (Sigma-Aldrich) to cell culture medium, and tested for luciferase activity and western-blot (see below).
Effect of Small Molecule Inhibitors of Aβ42 aggregation in inducible cell lines. Congo Red, Rosmarinic acid, Quercetin, scyllo-inositol, and (−)-Epigallocatechin gallate (EGCG) were purchased from Sigma-Aldrich, and dissolved in DMSO. Cells were plated in 96-well plates and allowed to attach overnight. Cell medium without antibiotics was prepared containing 2× of the final compound concentration (1 μM) and 2× of final doxycycline concentration (0.75 μgr/ml) and diluted to 1× with media in the well. Control cells were treated with medium containing the same volume of DMSO. 8 wells were treated per condition. After 24 hours, 4 wells were harvested for luciferase assays, and 4 wells were used for cell survival assays.
sLuc Metridia activity. sLuc Metridia activity was measured using the same plates and instrument described above. Metridia reagent was prepared as described in (G. A. Stepanyuk et al., 2008, Protein Expr Purif 61, 142). Coelenterazine, native (Biosynth AG, Staad, Switzerland) was brought up at 1.43 mM in Methanol acidified with 1N HCl and diluted to 7.2 μM in 20 mM Tris-HCl 0.3M NaCl pH7.5 (Sigma-Aldrich). 20 μl of cell medium were transferred to white 96-well plates, 50 μl of reagent was injected, and every well was read for 5 s followed by a 3s delay. sLuciferase activity is measured in Relative Luminiscence Units (RLU).
(§2) Cell survival was measured using Cell titer Blue kit (Promega). […] After 1 hour incubation at 37° C., fluorescence was recorded in a Spectramax M5 plate reader, using excitation at 560 nm and emission at 590 nm in Relative Fluorescence Units (RFU).
(§3) Effect of small molecule inhibitors of Aβ42 in the inducible cell lines. The ratio luciferase activity/cell survival (Rsmall molecule) was calculated as shown in eq. […] Four technical replicates were measured per molecule for each test. Standard deviation was calculated using eq. […]
(§4) Comparing the Fold inhibition ratio of a given molecule in the Aβ42 and SH3 sensors allows the identification of molecules that change the ratios by mechanisms non-specific to aggregation such as toxicity or interference with luciferase activity. […] Standard errors were calculated using Error propagation theory. […]

cLucAβ = assay: Effect of small molecule aggregation inhibitors on cytoplasmic reporter in inducible cell lines; format: cell-based; details: 1 μM compound, 24 hours
Experimental: as §1
Effect of Small Molecule Inhibitors of Aβ42 aggregation in inducible cell lines. Congo Red, Rosmarinic acid, Quercetin, scyllo-inositol, and (−)-Epigallocatechin gallate (EGCG) were purchased from Sigma-Aldrich, and dissolved in DMSO. Cells were plated in 96-well plates and allowed to attach overnight. […]
cLuciferase Firefly activity. […] 20 μl of cellular lysate were transferred to white 96-well plates (Corning), 100 μl of luciferase reagent were injected, and every well was read for 5 s followed by 3 s delay to minimize cross-talk between wells using a Modulus Microplate Multimode Reader (Turner Biosystems Inc., Sunnyvale, Calif., USA). cLuciferase activity is measured in Relative Luminiscence Units (RLU).
as §2, §3, §4

[1] = In vitro Aβ42 aggregation kinetics by Thioflavin T fluorescence; format: physicochemical; details: 25 μM in PBS, 30° C., ThT
Experimental: (§5) Aβ42, Aβ40, Aβ42F20E and Aβ42E22G peptides (Bachem, Torrance, USA) were disaggregated using Hexafluoro-2-propanol (HFIP, Sigma-Aldrich) following the protocol described elsewhere (C. Goldsbury, et al., 2005, J Mol Biol 352, 282), and aliquoted into low protein binding tubes (Eppendorf).
In vitro Aβ42 kinetic experiment. 25 μM Aβ42 in PBS was incubated at 30° C. Aliquots were withdrawn at different time points, and Tht binding was measured in triplicates.

[2] = system: cytoplasmic and secreted reporters; assay: Thapsigargin effect on activity of cytoplasmic and secreted reporters in inducible 293FlpInTrex cell lines; format: cell-based; details: 24 hours, different concentrations
Experimental: FIG. 16: Changes in proteostasis pathways 96 hours postinduction (A) relative mRNA levels of cells expressing cLucAβ or sLucAβ versus cLucSH3 or sLucSH3 measured by qPCR; (B) Protein expression analysed by Western blot. (C) Activity of cytoplasmic and secreted reporters normalized by cell survival in the presence of different concentrations of Thapsigargin compared to solvent alone. Data are means±s.d. Experiments were carried out using doxycyline inducible 293FlpInTrex cell lines expressing the aggregation sensors.
293T FlipInTrex (Invitrogen) cells. 293T FlipInTrex cells were grown as described above, using Tet Approved Fetal Bovine Serum (Clontech) and supplementing the medium with Zeocin 100 μg/mL (Invitrogen) and Blasticidin 15 μg/ml (InVivoGen, San Diego, USA). Zeocin selects for the lacZeo inserted into FRT sites in the genome, and Blasticidin selects for Tet repressor expression. […]
as §2

synthetic Aβ42 = target: T1, synthetic Aβ42 (Homo sapiens, UniProt P05067); assay: Inhibition of in vitro aggregation of synthetic Aβ42 by small molecules (ThT fluorescence); format: biochemical; details: 1 μM compound, 25 μM Aβ42, 1 day at 30° C.
T1 construct: a fragment comprising residues 672-713 of Aβ (“Aβ42”); purchased Bachem
T1 sequence (P05067 672-713): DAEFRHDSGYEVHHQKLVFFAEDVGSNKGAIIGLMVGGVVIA
Experimental: as §5
Effect of small molecule inhibitors of Aβ42 aggregation. 2 mM Aβ42 stock solutions in DMSO) were sonicated for 5 minutes, and diluted to final 25 μM concentration in PBS (Gibco). Small molecules were added to final 1 μM concentration, the final DMSO concentration in all samples and control was kept equal. Samples were incubated for 1 day at 30° C., and tested for Aβ42 aggregation using Thioflaving T (Tht, Sigma-Aldrich) binding monitored by fluorescence (excitation 450 nm/emission 485 nm). Tht was prepared at 5 μM in 20 mM Glycine pH=8 buffer. 10 μl of sample were plated in triplicates in clear bottom non-binding black plates (Corning), and 100 μl of Tht were added. After 5 minutes of incubation at room temperatures, fluorescence was read. Data were corrected by Tht alone fluorescence, and normalized by the Tht intensity of the control solution, Aβ42+DMSO. Ratios and standard deviations were calculated as described in the Data Analysis section.

Molecule	effect on sLucAβ activity compared to solvent alone (sLucAβ)	effect on cLucAβ activity compared to solvent alone (cLucAβ)	further results
(−)-Epigallocatechin gallate [EGCG]	significantly increased activity	no effect	
O[C@H]1[C@H](O)[C@@H](O)[C@H](O)[C@@H](O)[C@@H]1O [Scilloinositol, scyllo-inositol]	significantly increased activity	no effect	
synthetic Aβ peptide: synthetic Aβ42 peptide (Bachem) used for in vitro aggregation			exponential phase of in vitro aggregation [1]: 6 to 24 h; plateau of in vitro aggregation [1]: 24 to 72 h
O=c1c(O)c(-c2ccc(O)c(O)c2)oc2cc(O)cc(O)c12 [Quercetin]	significantly increased activity	no effect	
C/C=C(/C)C(=O)O[C@H]1C(C)=C2[C@H]([C@@H]1OC(=O)CCCCCCC)[C@@](C)(OC(C)=O)C[C@H](OC(=O)CCC)[C@@]1(O)[C@H]2OC(=O)[C@@]1(C)O [TG, Thapsigargin]			effect on aggregation sensor activity normalized by cell survival [2]: increase of only sAβ activity in a TG dose-dependent manner
O=C(/C=C/c1ccc(O)c(O)c1)O[C@H](Cc1ccc(O)c(O)c1)C(=O)O [Rosmarinic acid]	significantly increased activity	no effect	
Nc1c(/N=N/c2ccc(-c3ccc(/N=N/c4cc(S(=O)(=O)O)c5ccccc5c4N)cc3)cc2)cc(S(=O)(=O)O)c2ccccc12 [Congo Red]	did not increase the activity		inhibition of in vitro aggregation of synthetic Aβ42 by ThT fluorescence (synthetic Aβ42): potently inhibited
